# Data reported in US9586951B2 (FUJIFILM Corporation, priority 2013, dated 2017).
# Columns and labels:
# [1] = tested on: human non-small cell lung cancer cell line NCI-H460; test: Cell proliferation inhibition test by sensitivity-enhancing to ionizing radiation (Cell Titer Glo); type: cell-based; settings: Homo sapiens, NCI-H460, 120 h, concentration in which SER became 2; NCI-H460 cells, ionizing radiation 2 Gy, cultured 120 hour
# Method in brief: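 Cells seeded at 2×10^3 cells/mL in RPMI-1640 with 10% FBS; after 24 h, compound added (0.1% DMSO), and 30 min later half the plates irradiated at 2 Gy. After 120 hour at 37° C, viability by Cell Titer Glo luminescence; SER2 is the concentration giving SER of 2 by sigmoidal fit.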
# [2] = biological target: T1, ATM (Homo sapiens, UniProt Q13315); test: ATM inhibition test (phosphorylation of Chk2 generated by ionizing radiation, AlphaScreen SureFire); type: cell-based; settings: phosphorylated Chk2 in NCI-H460 cells, ionizing radiation 8Gy, 1 hour after test compound treatment; read-out: ATM inhibitory activity
# T1 construct: detecting phosphorylation of Chk2 in a human non-small cell lung cancer cell line NCI-H460 (ATCC company); host or cells: NCI-H460 human non-small cell lung cancer cells
# T1 sequence (Q13315 whole entry): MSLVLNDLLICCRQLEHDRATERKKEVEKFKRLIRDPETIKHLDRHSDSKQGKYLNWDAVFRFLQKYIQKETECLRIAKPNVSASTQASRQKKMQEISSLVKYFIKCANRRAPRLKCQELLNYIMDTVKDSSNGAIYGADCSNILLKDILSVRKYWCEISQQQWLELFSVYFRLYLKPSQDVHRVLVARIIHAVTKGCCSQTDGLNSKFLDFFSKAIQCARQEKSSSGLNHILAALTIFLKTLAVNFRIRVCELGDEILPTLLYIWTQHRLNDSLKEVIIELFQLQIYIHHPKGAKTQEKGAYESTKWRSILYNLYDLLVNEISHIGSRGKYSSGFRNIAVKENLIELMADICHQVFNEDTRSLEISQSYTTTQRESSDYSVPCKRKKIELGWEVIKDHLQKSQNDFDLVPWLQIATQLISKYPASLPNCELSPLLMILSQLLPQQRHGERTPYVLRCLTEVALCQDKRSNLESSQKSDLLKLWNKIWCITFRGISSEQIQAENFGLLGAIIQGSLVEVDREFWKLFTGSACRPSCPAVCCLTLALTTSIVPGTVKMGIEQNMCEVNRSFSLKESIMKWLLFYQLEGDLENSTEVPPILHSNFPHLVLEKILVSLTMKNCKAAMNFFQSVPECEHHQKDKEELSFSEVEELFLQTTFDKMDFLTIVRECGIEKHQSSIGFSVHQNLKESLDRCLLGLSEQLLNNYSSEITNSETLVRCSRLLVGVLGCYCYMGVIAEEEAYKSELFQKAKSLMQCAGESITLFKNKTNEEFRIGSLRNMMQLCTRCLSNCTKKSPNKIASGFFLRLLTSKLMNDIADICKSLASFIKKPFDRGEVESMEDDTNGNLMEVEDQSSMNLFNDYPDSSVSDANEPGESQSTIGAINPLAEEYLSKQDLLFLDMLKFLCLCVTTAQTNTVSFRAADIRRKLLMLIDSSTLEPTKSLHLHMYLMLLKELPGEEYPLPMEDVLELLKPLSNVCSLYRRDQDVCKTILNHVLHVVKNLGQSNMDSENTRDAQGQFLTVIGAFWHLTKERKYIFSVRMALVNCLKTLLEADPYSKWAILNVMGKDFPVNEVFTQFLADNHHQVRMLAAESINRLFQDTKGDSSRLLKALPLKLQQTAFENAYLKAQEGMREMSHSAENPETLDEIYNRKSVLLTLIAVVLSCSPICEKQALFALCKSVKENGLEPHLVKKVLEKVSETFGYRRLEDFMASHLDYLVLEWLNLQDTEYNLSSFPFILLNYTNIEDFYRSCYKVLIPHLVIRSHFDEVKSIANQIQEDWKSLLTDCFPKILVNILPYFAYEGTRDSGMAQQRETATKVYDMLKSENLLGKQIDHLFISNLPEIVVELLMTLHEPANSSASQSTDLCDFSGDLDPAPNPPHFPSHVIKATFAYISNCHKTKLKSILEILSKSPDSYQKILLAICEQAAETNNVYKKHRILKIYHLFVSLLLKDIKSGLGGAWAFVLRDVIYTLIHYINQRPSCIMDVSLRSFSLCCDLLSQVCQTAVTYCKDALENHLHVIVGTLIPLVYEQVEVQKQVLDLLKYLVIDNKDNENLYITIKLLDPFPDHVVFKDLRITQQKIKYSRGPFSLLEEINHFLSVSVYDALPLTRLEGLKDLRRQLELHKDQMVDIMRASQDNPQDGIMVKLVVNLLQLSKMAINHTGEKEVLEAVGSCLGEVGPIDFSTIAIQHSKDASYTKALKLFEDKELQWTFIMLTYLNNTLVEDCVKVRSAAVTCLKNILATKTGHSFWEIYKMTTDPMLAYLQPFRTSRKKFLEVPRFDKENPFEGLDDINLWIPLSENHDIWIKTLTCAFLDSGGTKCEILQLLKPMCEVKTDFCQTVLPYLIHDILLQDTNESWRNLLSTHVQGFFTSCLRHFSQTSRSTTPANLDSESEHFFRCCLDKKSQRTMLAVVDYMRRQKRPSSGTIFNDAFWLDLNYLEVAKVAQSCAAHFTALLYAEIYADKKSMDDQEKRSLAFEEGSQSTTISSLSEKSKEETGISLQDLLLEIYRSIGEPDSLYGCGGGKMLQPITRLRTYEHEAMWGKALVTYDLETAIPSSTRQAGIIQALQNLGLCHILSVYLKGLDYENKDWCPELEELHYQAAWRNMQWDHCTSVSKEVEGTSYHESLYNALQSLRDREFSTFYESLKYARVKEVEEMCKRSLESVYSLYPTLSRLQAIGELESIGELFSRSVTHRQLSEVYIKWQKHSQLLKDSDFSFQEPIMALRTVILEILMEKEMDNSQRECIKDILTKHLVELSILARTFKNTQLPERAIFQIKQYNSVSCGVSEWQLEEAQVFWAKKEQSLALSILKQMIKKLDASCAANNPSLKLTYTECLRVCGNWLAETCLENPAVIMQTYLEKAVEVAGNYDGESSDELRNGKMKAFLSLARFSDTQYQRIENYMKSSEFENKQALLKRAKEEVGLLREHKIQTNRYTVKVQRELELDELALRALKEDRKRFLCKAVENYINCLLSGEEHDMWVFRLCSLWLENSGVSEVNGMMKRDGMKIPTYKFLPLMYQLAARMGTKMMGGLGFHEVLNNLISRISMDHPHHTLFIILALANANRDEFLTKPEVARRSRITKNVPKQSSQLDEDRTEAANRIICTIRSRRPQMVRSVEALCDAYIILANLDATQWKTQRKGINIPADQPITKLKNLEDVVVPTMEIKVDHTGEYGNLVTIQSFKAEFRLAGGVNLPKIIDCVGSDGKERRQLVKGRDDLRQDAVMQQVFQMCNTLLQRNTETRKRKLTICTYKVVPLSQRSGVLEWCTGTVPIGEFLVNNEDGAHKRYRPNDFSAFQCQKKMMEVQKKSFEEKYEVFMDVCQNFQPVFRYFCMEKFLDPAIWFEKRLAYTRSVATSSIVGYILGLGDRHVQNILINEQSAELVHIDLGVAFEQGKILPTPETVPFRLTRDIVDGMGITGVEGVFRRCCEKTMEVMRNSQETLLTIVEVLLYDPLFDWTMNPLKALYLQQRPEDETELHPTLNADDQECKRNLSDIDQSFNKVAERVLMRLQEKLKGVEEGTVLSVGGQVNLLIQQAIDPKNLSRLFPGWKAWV
# Method in brief: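 In NCI-H460 cells, radiation-triggered Chk2 phosphorylation (8Gy, 1 h) is detected by AlphaScreen SureFire following 1 h compound exposure.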
IC50 [2] [µM],Compound,SER2 (concentration at which the radiation sensitivity-enhancement ratio reaches 2) [1] [nM]
< 0.1,"COc1cncc(CNc2ccc3c(c2)Sc2cccc(-c4cc(N5CCOCC5)cc(=O)[nH]4)c2S3)c1 [Example 1-44-1, 6-(7-(((5-methoxypyridin-3-yl)methyl)amino)thianthren-1-yl)-4-morpholinopyridin-2(1H)-one]",500 to 2000
< 0.1,"COc1cc(CNc2ccc3c(c2)Sc2cccc(-c4cc(N5CCOCC5)cc(=O)[nH]4)c2S3)ccn1 [Example 1-44-4, 6-(7-(((2-Methoxypyridin-4-yl)methyl)amino)thianthren-1-yl)-4-morpholino pyridin-2 (1H)-one]",500 to 2000
< 0.1,"CN1CCC(Nc2ccc3c(c2)Sc2cccc(-c4cc(N5CCOCC5)cc(=O)[nH]4)c2S3)CC1 [Example 1-44-5, 6-(7-((1-Methylpiperidin-4-yl)amino)thianthren-1-yl)-4-morpholino pyridin-2(1H)-one]",500 to 2000
< 0.1,"COC[C@H](CN1CCOC[C@H]1C)Nc1ccc2c(c1)Sc1cccc(-c3cc(N4CCOCC4)cc(=O)[nH]3)c1S2 [Example 1-46-4, 6-(7-(((S)-1-Methoxy-3-((R)-3-methylmorpholino)propan-2-yl)amino)thianthren-1-yl)-4-morpholino pyridin-2(1H)-one]",100 to 500
< 0.1,"COC[C@H](CN1CCOC[C@@H]1C)Nc1ccc2c(c1)Sc1cccc(-c3cc(N4CCOCC4)cc(=O)[nH]3)c1S2 [Example 1-46-5, 6-(7-(((S)-1-Methoxy-3-((S)-3-methylmorpholino)propan-2-yl)amino)thianthren-1-yl)-4-morpholino pyridin-2(1H)-one]",100 to 500
< 0.1,"COC[C@H](CN1CCO[C@@H](C)C1)Nc1ccc2c(c1)Sc1cccc(-c3cc(N4CCOCC4)cc(=O)[nH]3)c1S2 [Example 1-46-6, 6-(7-(((S)-1-Methoxy-3-((S)-2-methylmorpholino)propan-2-yl)amino)thianthren-1-yl)-4-morpholino pyridin-2(1H)-one]",< 100
< 0.1,"COC[C@H](CN1CCO[C@H](C)C1)Nc1ccc2c(c1)Sc1cccc(-c3cc(N4CCOCC4)cc(=O)[nH]3)c1S2 [Example 1-46-7, 6-(7-(((S)-1-Methoxy-3-((R)-2-methylmorpholino)propan-2-yl)amino)thianthren-1-yl)-4-morpholino pyridin-2(1H)-one]",100 to 500
< 0.1,"COC[C@H](CN1CCC(C(F)(F)F)CC1)Nc1ccc2c(c1)Sc1cccc(-c3cc(N4CCOCC4)cc(=O)[nH]3)c1S2 [Example 1-46-8, (S)-6-(7-((1-Methoxy-3-(4-(trifluoromethyl)piperidin-1-yl)propan-2-yl)amino)thianthren-1-yl)-4-morpholino pyridin-2(1H)-one]",100 to 500
< 0.1,"COC[C@H](CN1CCOC(C)(C)C1)Nc1ccc2c(c1)Sc1cccc(-c3cc(N4CCOCC4)cc(=O)[nH]3)c1S2 [Example 1-46-9, (S)-6-(7-((1-(2,2-Dimethylmorpholino)-3-methoxypropan-2-yl)amino)thianthren-1-yl)-4-morpholino pyridin-2(1H)-one]",100 to 500
< 0.1,"COCC(CN1CC2CCC(C1)O2)Nc1ccc2c(c1)Sc1cccc(-c3cc(N4CCOCC4)cc(=O)[nH]3)c1S2 [Example 1-46-10, 6-(7-(((2S)-1-(8-Oxa-3-azabicyclo[3.2. l]octan-3-yl)-3-methoxypropan-2-yl)amino)thianthren-1-yl)-4-morpholino pyridin-2(1H)-one]",100 to 500
< 0.1,"COC[C@H](CN1C[C@@H](C)O[C@@H](C)C1)Nc1ccc2c(c1)Sc1cccc(-c3cc(N4CCOCC4)cc(=O)[nH]3)c1S2 [Example 1-46-11, 6-(7-(((S)-1-((2S,6R)-2,6- Dimethylmorpholino)-3-methoxypropan-2-yl)amino)thianthren-1-yl)-4-morpholino pyridin-2(1H)-one]",< 100
< 0.1,"O=c1cc(N2CCOCC2)cc(-c2cccc3c2Sc2ccc(N[C@@H]4CCCC[C@H]4N4CCOCC4)cc2S3)[nH]1 [Example 1-48-1, 4-Morpholino-6-(7-(((1R,2R)-2-morpholinocyclohexyl)amino)thianthren-1-yl)pyridin-2(1H)-one]",100 to 500
< 0.1,"O=c1cc(N2CCOCC2)cc(-c2cccc3c2Sc2ccc(N[C@@H]4CCCC[C@@H]4N4CCOCC4)cc2S3)[nH]1 [Example 1-48-2, 4-Morpholino-6-(7-(((1R,2S)-2-morpholinocyclohexyl)amino)thianthren-1-yl)pyridin-2(1H)-one]",< 100
< 0.1,"Cc1cnc(C(CCN2CCOCC2)Nc2ccc3c(c2)Sc2cccc(-c4cc(N5CCOCC5)cc(=O)[nH]4)c2S3)cn1 (stereo not shown) [Example 1-50-1, 6-(7-((1-(5-methylpyrazin-2-yl)-3-morpholinopropyl)amino)thianthren-1-yl)-4-morpholinopyridin-2(1H)-one]",< 100
< 0.1,"Cc1ccc(C(C)(C)Nc2ccc3c(c2)Sc2cccc(-c4cc(N5CCOCC5)cc(=O)[nH]4)c2S3)nc1 [Example 1-50-2, 6-(7-((2-(5-Methylpyridin-2-yl)propan-2-yl)amino)thianthren-1-yl)-4-morpholino pyridin-2(1H)-one]",100 to 500
< 0.1,"Cc1ccc(C2(Nc3ccc4c(c3)Sc3cccc(-c5cc(N6CCOCC6)cc(=O)[nH]5)c3S4)COC2)nc1 [Example 1-50-4, 6-(7-((3-(5-Methylpyridin-2-yl)oxetan-3-yl)amino)thianthren-1-yl)-4-morpholino pyridin-2(1H)-one]",100 to 500
< 0.1,"Cc1ccc(C2(Nc3ccc4c(c3)Sc3cccc(-c5cc(N6CCOCC6)cc(=O)[nH]5)c3S4)CC2)nc1 [Example 1-50-5, 6-(7-((1-(5-Methylpyridin-2-yl)cyclopropyl)amino)thianthren-1-yl)-4-morpholino pyridin-2(1H)-one]",100 to 500
< 0.1,"Cc1ccc(C(CCCN(C)C)Nc2ccc3c(c2)Sc2cccc(-c4cc(N5CCOCC5)cc(=O)[nH]4)c2S3)nc1 (stereo not shown) [Example 1-50-7, 6-(7-((4-(Dimethylamino)-1-(5-methylpyridin-2-yl)butyl)amino)thianthren-1-yl)-4-morpholino pyridin-2(1H)-one]",100 to 500
< 0.1,"COc1ccc(CNc2ccc3c(c2)Cc2cccc(-c4cc(N5CCOCC5)cc(=O)[nH]4)c2O3)cn1 [Example 2-2-1, 6-(7-(((6-methoxypyridin-3-yl)methyl)amino)-9H-xanthen-4-yl)-4-morpholinopyridin-2(1H)-one]",100 to 500
0.1 to 0.5,O=c1cc(N2CCOCC2)cc(-c2cccc3c2Oc2ccc(NCc4ccc(Cl)nc4)cc2C3)[nH]1 [Example 2-2-3],100 to 500
0.1 to 0.5,"CNc1ccc(CNc2ccc3c(c2)Cc2cccc(-c4cc(N5CCOCC5)cc(=O)[nH]4)c2O3)cn1 [Example 2-2-7, 6-(7-(((6-(Methylamino)pyridin-3-yl)methyl)amino)-9H-xanthen-4-yl)-4-morpholino pyridin-2 (1H)-one]",100 to 500
< 0.1,"O=c1cc(N2CCOCC2)cc(-c2cccc3c2Oc2ccc(NCc4ccc(F)nc4)cc2C3)[nH]1 [Example 2-2-11, 6-(7-(((6-Fluoropyridin-3-yl)methyl)amino)-9H-xanthen-4-yl)-4-morpholino pyridin-2 (1H)-one]",100 to 500
< 0.1,"O=c1cc(N2CCOCC2)cc(-c2cccc3c2Oc2ccc(NCc4cncc(Cl)c4)cc2C3)[nH]1 [Example 2-2-12, 6-(7-(((5-Chloropyridin-3-yl)methyl)amino)-9H-xanthen-4-yl)-4-morpholino pyridin-2 (1H)-one]",100 to 500
< 0.1,"COc1ncc(CNc2ccc3c(c2)Cc2cccc(-c4cc(N5CCOCC5)cc(=O)[nH]4)c2O3)cn1 [Example 2-2-14, 6-(7-(((2-Methoxypyrimidin-5-yl)methyl)amino)-9H-xanthen-4-yl)-4-morpholino pyridin-2(1H)-one]",100 to 500
0.1 to 0.5,"CNc1ncc(CNc2ccc3c(c2)Cc2cccc(-c4cc(N5CCOCC5)cc(=O)[nH]4)c2O3)cn1 [Example 2-2-16, 6-(7-(((2-(Methylamino)pyrimidin-5-yl)methyl)amino)-9H-xanthen-4-yl)-4-morpholino pyridin-2(1H)-one]",100 to 500
< 0.1,"CN(C)c1ncc(CNc2ccc3c(c2)Cc2cccc(-c4cc(N5CCOCC5)cc(=O)[nH]4)c2O3)cn1 [Example 2-2-17, 6-(7-(((2-(Dimethylamino)pyrimidin-5-yl)methyl)amino)-9H-xanthen-4-yl)-4-morpholino pyridin-2(1H)-one]",500 to 2000
